Reference: article PMC11901818, “Salicylaldehyde Benzoylhydrazones with Anticancer Activity and Selectivity: Design, Synthesis, and In Vitro Evaluation” (Molecules, 2025)
Like-named read-outs stand apart in the source and are kept apart here.

Legend:
[1] = system: all cancer cell lines (five leukemia, MCF-7, MDA-MB-231); assay: MTT test, average over all cancer cell lines; assay type: cell-based, human; conditions: Avg. all cancers
Description: (§1) The ligand efficiencies (LEs), obtained by the ratio between pIC50 and the number of heavy atoms in the molecule, along with the selectivity indices (SIs), calculated by comparing IC50 of normal cells to IC50 of cancer cells, are presented in Table 4.
(§2) The spectrum of anti-tumor activity of the experimental compounds was assessed against human malignant cell lines of leukemic (HL-60, BV-173, K-562, AR-230, and SKW-3) and epithelial (MCF-7 and MDA-MB-231) origin, as well as normal human embryonic kidney cells (HEK-293). All cell lines were purchased from the German Collection of Microorganisms and Cell Cultures (DSMZ GmbH, Braunschweig, Germany), and cell cultures were maintained and grown in the appropriate medium specified by the provider and incubated under standard conditions of 37 °C and 5% humidified CO2 atmosphere.
(§3) The cytotoxicity assessment of the methoxysalicylaldehyde methoxybenzoylhydrazone series was performed using the Mosmann MTT method, a validated technique for evaluating cell viability. Cells in the exponential growth phase were harvested and seeded (100 µL/well) in 96-well plates at a suitable density (3 × 10^5 cells/well for suspension leukemic cultures and 1.5 × 10^5 cells/well for adherent epithelial cells). After a 24 h incubation period, the cells were treated with serial dilutions of the tested compounds within an appropriate concentration range. Following a 72 h exposure, an MTT substrate solution (5 mg/mL in PBS) was added to each well. After an additional 4 h incubation, purple insoluble formazan crystals formed. These crystals were then dissolved in an isopropyl alcohol solution containing 5% formic acid before measuring absorbance at 550 nm using a microplate reader Labexim LMR-1 (Vienna, Austria). The recorded absorbance values were blanked against MTT and isopropanol solution and normalized to the mean value of the untreated control (representing 100% cell viability). The experimental data were analyzed using non-linear regression analysis in GraphPad Prism® software 8.0 (San Diego, CA, USA), from which semi-logarithmic “dose–response” curves were constructed, and the half-inhibitory concentrations (IC50) of the tested compounds were calculated.

[2] = system: K-562 cells (bcr-abl+ chronic myeloid leukemia); assay: Mosmann MTT cell viability test, K-562; assay type: cell-based, human; conditions: for IC50: Homo sapiens, K562, K-562, MTT, 72 h exposure, ± standard deviation; for Selectivity index (SI): IC50 HEK-293 / IC50 K-562
Description: (§4) The anticancer activity of the dimethoxy hydrazone derivatives was tested against a panel of malignant human cell lines of different tissue origin and molecular characteristics, including several in vitro leukemia models (acute promyelocytic leukemia HL-60; bcr-abl+ chronic myeloid leukemia cell lines BV-173, K-562, and AR-230; and T-cell leukemia SKW-3), as well as the two major phenotypes of human breast adenocarcinoma (hormone-sensitive MCF-7 cells with high progesterone (PR) and estrogen receptor α (ERα) expression and triple-negative breast adenocarcinoma (TNBC) MDA-MB-231 lacking ERα, PR, and human epidermal growth factor receptor 2 (HER2)). The existence and degree of cancer selectivity of the tested compounds were evaluated against normal human embryonic kidney HEK-293 cells.
as §2, §3

MDA-MB-231 cells (TNBC) = assay: Mosmann MTT cell viability test, MDA-MB-231; assay type: cell-based, human; conditions: for IC50: Homo sapiens, MDA-MB-231, MTT, 72 h exposure, ± standard deviation; for Selectivity index (SI): IC50 HEK-293 / IC50 MDA-MB-231
Description: as §4, §2, §3

[3] = system: breast cancer cell lines (MCF-7, MDA-MB-231); assay: MTT test, average over breast cancer cell lines; assay type: cell-based, human; conditions: Avg. breast cancer
Description: as §1, §2
The cytotoxicity assessment of the methoxysalicylaldehyde methoxybenzoylhydrazone series was performed using the Mosmann MTT method, a validated technique for evaluating cell viability. Cells in the exponential growth phase were harvested and seeded (100 µL/well) in 96-well plates at a suitable density (3 × 10^5 cells/well for suspension leukemic cultures and 1.5 × 10^5 cells/well for adherent epithelial cells). After a 24 h incubation period, the cells were treated with serial dilutions of the tested compounds within an appropriate concentration range. […] These crystals were then dissolved in an isopropyl alcohol solution containing 5% formic acid before measuring absorbance at 550 nm using a microplate reader Labexim LMR-1 (Vienna, Austria). The recorded absorbance values were blanked against MTT and isopropanol solution and normalized to the mean value of the untreated control (representing 100% cell viability). The experimental data were analyzed using non-linear regression analysis in GraphPad Prism® software 8.0 (San Diego, CA, USA), from which semi-logarithmic “dose–response” curves were constructed, and the half-inhibitory concentrations (IC50) of the tested compounds were calculated.

[4] = system: HL-60 cells (acute promyelocytic leukemia); assay: Mosmann MTT cell viability test, HL-60; assay type: cell-based, human; conditions: for IC50: Homo sapiens, HL-60, MTT, 72 h exposure, ± standard deviation; for Selectivity index (SI): IC50 HEK-293 / IC50 HL-60
Description: as §4, §2, §3

[5] = system: normal human embryonic kidney cells, HEK-293; assay: Mosmann MTT cell viability test, HEK-293 (selectivity); assay type: cell-based; conditions: HEK293, HEK-293 normal cells, 72 h exposure, ± standard deviation
Description: as §4, §2, §3

[6] = system: BV-173 cells (bcr-abl+ chronic myeloid leukemia); assay: Mosmann MTT cell viability test, BV-173; assay type: cell-based, human; conditions: for IC50: Homo sapiens, BV-173, MTT, 72 h exposure, ± standard deviation; for Selectivity index (SI): IC50 HEK-293 / IC50 BV-173
Description: as §4, §2, §3

[7] = system: AR-230 cells (bcr-abl+ chronic myeloid leukemia); assay: Mosmann MTT cell viability test, AR-230; assay type: cell-based, human; conditions: for IC50: AR-230, MTT, 72 h exposure, ± standard deviation; for Selectivity index (SI): IC50 HEK-293 / IC50 AR-230
Description: as §4, §2, §3

[8] = system: MCF-7 cells (breast ER+ adenocarcinoma); assay: Mosmann MTT cell viability test, MCF-7; assay type: cell-based, human; conditions: for IC50: Homo sapiens, MCF7, MCF-7, MTT, 72 h exposure, ± standard deviation; for Selectivity index (SI): IC50 HEK-293 / IC50 MCF-7
Description: as §4, §2, §3

[9] = system: SKW-3 cells (T-cell leukemia); assay: Mosmann MTT cell viability test, SKW-3; assay type: cell-based, human; conditions: for IC50: SKW-3, MTT, 72 h exposure, ± standard deviation; for Selectivity index (SI): IC50 HEK-293 / IC50 SKW-3
Description: as §4, §2, §3

[10] = system: leukemia cell lines (BV-173, K-562, SKW-3, AR-230, and HL-60); assay: MTT test, average over leukemia cell lines; assay type: cell-based, human; conditions: Avg. leukemia
Description: as §1, §2, §3

IC50 [2] [µM] | IC50 (MDA-MB-231 cells (TNBC)) [µM] | IC50 [4] [µM] | IC50 [6] [µM] | IC50 [7] | IC50 ([7]; Homo sapiens, read-out: IC50) [µM] | IC50 [8] [µM] | IC50 ([9]; Homo sapiens, SKW3, 72 h) [µM] | IC50 [9] [µM] | Compound | Selectivity index (SI) [1] | Selectivity index (SI) [2] | Selectivity index (SI) (MDA-MB-231 cells (TNBC)) | Selectivity index (SI) [3] | Selectivity index (SI) [4] | IC50 [5] [µM] | Selectivity index (SI) [6] | Selectivity index (SI) [7] | Selectivity index (SI) [8] | Selectivity index (SI) [9] | Selectivity index (SI) [10]
2.8 ± 0.4 | 23.5 ± 3.4 | 2.4 ± 0.1 | 2.7 ± 0.2 | not active | > 100 | 36.1 ± 4.4 | 2.7 ± 0.3 |  | COc1ccc(C(=O)NN=Cc2cccc(OC)c2O)cc1 [Compound 3, N′-(2-hydroxy-3-methoxybenzylidene)-4-methoxybenzohydrazide] | >20 | >36 | >4 | >4 | >42 | > 100 | >19 | >1 | >3 | >37 | >27
2.1 ± 0.1 | 26.9 ± 3.3 | 3.6 ± 0.3 | 2.7 ± 0.2 |  | 5.9 ± 0.7 | 25.6 ± 2.8 | 1.4 ± 0.1 |  | COc1cccc(C(=O)NN=Cc2cccc(OC)c2O)c1 [Compound 2, N′-(2-hydroxy-3-methoxybenzylidene)-3-methoxybenzohydrazide] | 5 | 8 | 1 | 1 | 5 | 16.8 ± 2.3 | 6 | 3 | 1 | 12 | 7
1.5 ± 0.1 | 60.1 ± 5 | 4.7 ± 0.5 | 1.4 ± 0.2 |  | 1.1 ± 0.2 | 21.3 ± 1.9 | < 1 | 0.5 ± 0.1 | COc1ccc(C(=O)NN=Cc2ccc(OC)cc2O)cc1 [Compound 5, N′-(2-hydroxy-4-methoxybenzylidene)-4-methoxybenzohydrazide] | 7 | 7 |  |  | 2 | 10.4 ± 1.1 | 7 | 9 |  | 21 | 9
20.4 ± 2.9 | 22 ± 2.8 | 11.2 ± 2.1 | 33.5 ± 3.4 |  | 50.5 ± 6.6 | 30.1 ± 3.2 | 4.3 ± 0.5 |  | COc1ccccc1C(=O)NN=Cc1cccc(OC)c1O [Compound 1, N′-(2-hydroxy-3-methoxybenzylidene)-2-methoxybenzohydrazide] | >7 | >5 | >5 | >4 | >9 | > 100 | >3 | >2 | >3 | >23 | >8
1.6 ± 0.2 | 19.8 ± 3.1 | 2.1 ± 0.2 | 2.2 ± 0.3 |  | 4.5 ± 0.4 | 23.3 ± 2.7 | < 1 | 0.8 ± 0.1 | COc1cccc(C(=O)NN=Cc2ccc(OC)cc2O)c1 [Compound 4, N′-(2-hydroxy-4-methoxybenzylidene)-3-methoxybenzohydrazide] | 4 | 5 |  |  | 4 | 8.6 ± 1.5 | 4 | 2 |  | 11 | 5
